Measured values taken from publication PMC11822212, “High-throughput screening identifies Aurora kinase B as a critical therapeutic target for Merkel cell carcinoma” (Nature Communications, 2025).
Where “and” joins values, the source holds several entries; their conditions need not be identical. Equal entries are not always repeated. Structures can show the parent of a compound that is named as a salt. Where two headings read alike, the source gives them in different places.

Key:
[1] = system: MCC13 cells (VN-MCC); assay: qHTS cell viability (CellTiter-Glo, 72 h; primary and follow-up small molecule screen); type: cell-based, human
[2] = system: MCC26 cells (VN-MCC); assay: as above; type: cell-based, human
[3] = system: UISO cells (VN-MCC); assay: as above; type: cell-based, human
[4] = system: WAGA cells (VP-MCC); assay: as above; type: cell-based, human
[5] = system: MKL-1 cells (VP-MCC); assay: as above; type: cell-based, human
[6] = system: MKL-2 cells (VP-MCC); assay: as above; type: cell-based, human
[7] = system: HACAT cells; assay: qHTS cell viability (CellTiter-Glo, 72 h; primary screen), control cell line; type: cell-based, human
[8] = system: HEK293T cells; assay: as above; type: cell-based, human
[9] = system: NIH-3T3 cells; assay: as above; type: cell-based, mouse
[10] = system: CRL-7250 cells; assay: as above; type: cell-based
[11] = system: MCC cell lines (WAGA, MKL-1, MKL-2, MCC13, MCC26, UISO); assay: qHTS cell viability, all six MCC cell lines as a group (mean AUC, MCC.avg); type: cell-based, human
[12] = system: VP-MCC cell lines (WAGA, MKL-1, MKL-2); assay: qHTS cell viability, VP-MCC cell lines as a group (mean AUC, VP.MCC.avg); type: cell-based, human
[13] = system: VN-MCC cell lines (MCC13, MCC26, UISO); assay: qHTS cell viability, VN-MCC cell lines as a group (mean AUC, VN.MCC.avg); type: cell-based, human
[14] = system: control cell lines (HACAT, HEK293T, CRL-7250, NIH-3T3); assay: qHTS cell viability, control cell lines as a group (mean AUC, Control.avg); type: cell-based
[15] = system: six MCC cell lines and four control cell lines; assay: qHTS cell viability, all 10 cell lines screened; type: cell-based

For `CCCCCCC[N+](CC)(CC)CCCCc1ccc(Cl)cc1.Cc1ccc(S(=O)(=O)[O-])cc1` [Clofilium tosylate], the MCC13_AUC ([1]; NPC library, qHTS dose-response AUC, MCC13) was 487.681, the “Area under the dose-response curve (AUC) MCC13 Replicate 1” value ([1]; follow-up screen, MCC13, replicate 1) was 426.2 and the “Area under the dose-response curve (AUC) MCC13 Replicate 2” value ([1]; follow-up screen, MCC13, replicate 2) was 460.3. For the same compound, the “Area under the dose-response curve (AUC) MCC13 Replicate 3” value ([1]; follow-up screen, MCC13, replicate 3) was 452.0, the MCC26_AUC ([2]; NPC library, qHTS dose-response AUC, MCC26) was 466.849 and the “Area under the dose-response curve (AUC) MCC26 Replicate 1” value ([2]; follow-up screen, MCC26, replicate 1) was 410.9. For the same compound, the “Area under the dose-response curve (AUC) MCC26 Replicate 2” value ([2]; follow-up screen, MCC26, replicate 2) was 395.3, the “Area under the dose-response curve (AUC) MCC26 Replicate 3” value ([2]; follow-up screen, MCC26, replicate 3) was 393.8 and the UISO_AUC ([3]; NPC library, qHTS dose-response AUC, UISO) was 375.709. The “Area under the dose-response curve (AUC) UISO Replicate 1” value ([3]; follow-up screen, UISO, replicate 1) was 319.6, the “Area under the dose-response curve (AUC) UISO Replicate 2” value ([3]; follow-up screen, UISO, replicate 2) was 366.0 and the “Area under the dose-response curve (AUC) UISO Replicate 3” value ([3]; follow-up screen, UISO, replicate 3) was 321.7. The WAGA_AUC ([4]; NPC library, qHTS dose-response AUC, WAGA) was 331.884, the “Area under the dose-response curve (AUC) WAGA Replicate 1” value ([4]; follow-up screen, WAGA, replicate 1) was 348.8 and the “Area under the dose-response curve (AUC) WAGA Replicate 2” value ([4]; follow-up screen, WAGA, replicate 2) was 411.4. For the same compound, the “Area under the dose-response curve (AUC) WAGA Replicate 3” value ([4]; follow-up screen, WAGA, replicate 3) was 326.5, the MKL1_AUC ([5]; NPC library, qHTS dose-response AUC, MKL1) was 311.939 and the “Area under the dose-response curve (AUC) MKL-1 Replicate 1” value ([5]; follow-up screen, MKL-1, replicate 1) was 329.2. For the same compound, the “Area under the dose-response curve (AUC) MKL-1 Replicate 2” value ([5]; follow-up screen, MKL-1, replicate 2) was 327.6, the “Area under the dose-response curve (AUC) MKL-1 Replicate 3” value ([5]; follow-up screen, MKL-1, replicate 3) was 322.0 and the MKL2_AUC ([6]; NPC library, qHTS dose-response AUC, MKL2) was 283.262. The “Area under the dose-response curve (AUC) MKL-2 Replicate 1” value ([6]; follow-up screen, MKL-2, replicate 1) was 313.7, the “Area under the dose-response curve (AUC) MKL-2 Replicate 2” value ([6]; follow-up screen, MKL-2, replicate 2) was 309.2 and the “Area under the dose-response curve (AUC) MKL-2 Replicate 3” value ([6]; follow-up screen, MKL-2, replicate 3) was 301.8. For the same compound, the HACAT_AUC ([7]; NPC library, qHTS dose-response AUC, HACAT control) was 444.696, the HEK293T_AUC ([8]; NPC library, qHTS dose-response AUC, HEK293T control) was 375.013 and the NIH3T3_AUC ([9]; NPC library, qHTS dose-response AUC, NIH3T3 control) was 452.7. It also gave a CRL7250_AUC ([10]; NPC library, qHTS dose-response AUC, CRL7250 control) of 402.177, an MCC_Avg_AUC ([11]; NPC library, mean AUC of six MCC cell lines) of 376.221 and a VP-MCC_Avg_AUC ([12]; NPC library, mean AUC of VP-MCC cell lines) of 309.028. The Control-VP-MCC ([12]; NPC library, therapeutic window: Control avg AUC minus VP-MCC avg AUC) was 109.618, the VN-MCC_Avg_AUC ([13]; NPC library, mean AUC of VN-MCC cell lines) was 443.413 and the Control-VN-MCC ([13]; NPC library, therapeutic window: Control avg AUC minus VN-MCC avg AUC) was -24.7666. It also gave a Control_Avg_AUC ([14]; NPC library, mean AUC of control cell lines) of 418.646 and a Control-MCC ([15]; NPC library, therapeutic window: Control avg AUC minus MCC avg AUC) of 42.4257.
For `COc1ccc2c3c1O[C@H]1[C@@H](O)C=C[C@H]4[C@@H](C2)N(C)CC[C@@]341` [Codeine hydrochloride], the MCC13_AUC [1] was 404.155, the MCC26_AUC [2] was 404.512 and the UISO_AUC [3] was 365.394. It also gave a WAGA_AUC [4] of 360.01, an MKL1_AUC [5] of 362.385 and an MKL2_AUC [6] of 316.851. The HACAT_AUC [7] was 474.439, the HEK293T_AUC [8] was 441.34 and the NIH3T3_AUC [9] was 465.288 and 465.287. The CRL7250_AUC [10] was 458.141, the MCC_Avg_AUC [11] was 368.884 and the Control-VP-MCC [12] was 113.387. It also gave a VP-MCC_Avg_AUC [12] of 346.415, a Control-VN-MCC [13] of 68.4482 and a VN-MCC_Avg_AUC [13] of 391.354. For the same compound, the Control_Avg_AUC [14] was 459.802 and the Control-MCC [15] was 90.9174.
Compound `CC(C)(O)/C=C/C(=O)[C@](C)(O)[C@H]1[C@H](O)C[C@@]2(C)[C@@H]3CC=C4[C@@H](C=C(O)C(=O)C4(C)C)[C@]3(C)C(=O)C[C@]12C` [Cucurbitacin I] has an MCC13_AUC [1] of 297.405, an MCC26_AUC [2] of 343.064 and a UISO_AUC [3] of 252.668. For the same compound, the WAGA_AUC [4] was 216.289, the MKL1_AUC [5] was 212.417 and the MKL2_AUC [6] was 186.366. For the same compound, the HACAT_AUC [7] was 326.184, the HEK293T_AUC [8] was 307.458 and the NIH3T3_AUC [9] was 387.943. It also gave a CRL7250_AUC [10] of 234.715, an MCC_Avg_AUC [11] of 251.368 and a Control-VP-MCC [12] of 109.051. It also gave a VP-MCC_Avg_AUC [12] of 205.024, a Control-VN-MCC [13] of 16.3626 and a VN-MCC_Avg_AUC [13] of 297.712. For the same compound, the Control_Avg_AUC [14] was 314.075 and the Control-MCC [15] was 62.7066.
